The values that follow come from US20110224208A1, “NOVEL INHIBITORS OF FLAVIVIRUS REPLICATION” (KATHOLIEKE UNIVERSITEIT LEUVEN, K.U. LEUVEN R&D, priority 2008, published 2011).

Structures are written as SMILES. Values after ≈ are worked out from the molar mass of the structure shown.

Broadly, the IC50 is the concentration needed to halve the response being measured. A higher IC50 goes with weaker potency in that assay.

For this test, the system named is HCV replicon I389luc-ubi-neo/NS3-3'/5.1. The test can be described thus: Anti-HCV replicon assay (luciferase activity) in Huh-5-2 cells. To be noted: Hepatitis C virus, Huh-5-2, 72 h, concentration required to inhibit luciferase activity in the replicon system by 50%. The class given is cell-based, Hepatitis C virus. As to the method: Cells were seeded at a density of 7000 cells per well in 96 well View Plate™ (Packard) in medium containing the same components as described above, except for G418. Cells were allowed to adhere and proliferate for 24 hr. At that time, culture medium was removed and serial dilutions of the test compounds were added in culture medium lacking G418. Interferon alfa 2a (500 IU) was included as a positive control. Plates were further incubated at 37° C. and 5% CO2 for 72 hours. Replication of the HCV replicon in Huh-5 cells results in luciferase activity in the cells. Luciferase activity is measured by adding 50 μl of 1×Glo-lysis buffer (Promega) for 15 minutes followed by 50 ul of the Steady-Glo Luciferase assay reagent (Promega). Luciferase activity is measured with a luminometer and the signal in each individual well is expressed as a percentage of the untreated cultures. […] Instead the density of the culture is measured by means of the MTS method (Promega).
The compound `COCCN1C(=O)c2ccc(Cl)cc2C(C(=O)Nc2cccc(OC)c2)C1c1cccs1` (stereo not shown) [C55, 6-chloro-2-(2-methoxyethyl)-N-(3-methoxyphenyl)-1-oxo-3-(thiophen-2-yl)-1,2,3,4-tetrahydroisoquinoline-4-carboxamide] displayed an IC50 of 43 µg/mL (≈ 91.3 µM).

Take `CCN1CCC[C@H]1CN1C(=O)c2ccccc2C(C(=O)Nc2cccc(OC)c2)C1c1cccs1` (stereo partly drawn) [C74, 2-(((S)-1-ethylpyrrolidin-2-yl)methyl)-N-(3-methoxyphenyl)-1-oxo-3-(thiophen-2-yl)-1,2,3,4-tetrahydroisoquinoline-4-carboxamide]: the IC50 was found to be 36 µg/mL (≈ 73.4 µM).

With `COCCN1C(=O)c2ccccc2C(C(=O)Nc2ccc(-n3nc(C)cc3C)cc2)C1c1cccs1` (stereo not shown) [C201, N-(4-(3,5-dimethyl-1H-pyrazol-1-yl)phenyl)-2-(2-methoxyethyl)-1-oxo-3-(thiophen-2-yl)-1,2,3,4-tetrahydroisoquinoline-4-carboxamide], the half-inhibitory concentration (IC50) worked out at 0.078 µg/mL (≈ 0.156 µM).

The compound `COCCN1C(=O)c2ccccc2C(COCc2ccccc2)C1c1cccs1` (stereo not shown) [C76, 4-(benzyloxymethyl)-2-(2-methoxyethyl)-3-(thiophen-2-yl)-3,4-dihydroisoquinolin-1(2H)-one] yielded a 50% inhibitory concentration (IC50) of 22 µg/mL (≈ 54.1 µM).

For the compound `COCCN1C(=O)c2ccccc2C(C(=O)Nc2ccc(Oc3ccccc3)nc2)C1c1cccs1` (stereo not shown) [C158, 2-(2-methoxyethyl)-1-oxo-N-(6-phenoxypyridin-3-yl)-3-(thiophen-2-yl)-1,2,3,4-tetrahydroisoquinoline-4-carboxamide], the IC50 worked out at 0.04 µg/mL (≈ 0.0801 µM).

Compound `COCCn1c(-c2ccco2)c(C(=O)Nc2cccc(OC)c2)c2ccccc2c1=O` [C38, 3-(furan-2-yl)-2-(2-methoxyethyl)-N-(3-methoxyphenyl)-1-oxo-1,2-dihydroisoquinoline-4-carboxamide] displayed an IC50 of 41.4 µg/mL (≈ 98.9 µM).

In turn, `COCCN1C(=O)c2ccccc2C(C(=O)Nc2ccc3nccnc3c2)C1c1cccs1` (stereo not shown) [C171, 2-(2-methoxyethyl)-1-oxo-N-(quinoxalin-6-yl)-3-(thiophen-2-yl)-1,2,3,4-tetrahydroisoquinoline-4-carboxamide] returned an IC50 of 0.12 µg/mL (≈ 0.262 µM).

Turning to `COCCN1C(=O)c2ccc(C)cc2C(C(=O)Nc2cccc(OC)c2)C1c1cccs1` (stereo not shown) [C40, 2-(2-Methoxyethyl)-N-(3-methoxyphenyl)-6-methyl-1-oxo-3-(thiophen-2-yl)-1,2,3,4-tetrahydroisoquinoline-4-carboxamide], it took 7.76 µg/mL (≈ 17.2 µM) to reach half-maximal inhibition (IC50).

In turn, `COCCN1C(=O)c2ccc(F)cc2C(C(=O)Nc2cccc(OC)c2)C1c1cccs1` (stereo not shown) [C77, 6-fluoro-2-(2-methoxyethyl)-N-(3-methoxyphenyl)-1-oxo-3-(thiophen-2-yl)-1,2,3,4-tetrahydroisoquinoline-4-carboxamide] showed a half-inhibitory concentration (IC50) of 11.2 µg/mL (≈ 24.7 µM).

Compound `COCCN1C(=O)c2ccccc2C(C(=O)Nc2cccc(Cl)c2)C1c1cccs1` (stereo not shown) [C60, N-(3-chlorophenyl)-2-(2-methoxyethyl)-1-oxo-3-(thiophen-2-yl)-1,2,3,4-tetrahydroisoquinoline-4-carboxamide] came in with an IC50 of 0.98 µg/mL (≈ 2.22 µM).

On to `COCCN1C(=O)c2ccccc2C(C(=O)Nc2cccc(OC)c2)C1C#N` (stereo not shown) [C143, 3-cyano-2-(2-methoxyethyl)-N-(3-methoxyphenyl)-1-oxo-1,2,3,4-tetrahydroisoquinoline-4-carboxamide], for which the IC50 stood at 24.3 µg/mL (≈ 64 µM).

`COCCN1C(=O)c2ccccc2C(C(=O)Nc2ccc3c(c2)S(=O)(=O)C=C3)C1c1cccs1` (stereo not shown) [C198, N-(1,1-dioxobenzo[b]thiophen-6-yl)-2-(2-methoxyethyl)-1-oxo-3-(thiophen-2-yl)-1,2,3,4-tetrahydroisoquinoline-4-carboxamide]: the IC50 was 4 µg/mL (≈ 8.09 µM).

`COCCN1C(=O)c2cc(Cl)ccc2C(C(=O)Nc2cccc(OC)c2)C1c1cccs1` (stereo not shown) [C43, 7-Chloro-2-(2-methoxyethyl)-N-(3-methoxyphenyl)-1-oxo-3-(thiophen-2-yl)-1,2,3,4-tetrahydroisoquinoline-4-carboxamide]: the 50% inhibitory concentration (IC50) is 0.3 µg/mL (≈ 0.637 µM).
